Where “and” joins values, the source holds several entries; their conditions need not be identical. Equal entries are not always repeated. Each block holds one compound with its values, some of them ahead of it.
Tests used:
[1] = Particle size distribution (X50, X90) before and after HFA-LabRAM media milling, […] particle size analyzer; assay type: physicochemical; conditions: for PSD after HFA Milling X50 / PSD after HFA Milling X90: 80% power; for particle size (X50) prior to HFA-based RAM milling: unmilled; for X50 after RAM-milling: grades ML001 and SV003
Protocol: In a typical RAM based media milling process (see FIG. 1), API is added to a glass bottle along with Yttria zirconia (YTZ, diameters ranging from about 0.1 to about 2 mm) beads. Preferred bead sizes are from about 0.05 to about 5 mm. Another preferred bead size is from about 0.1 to about 2 mm. Other components that can be added to the API-bead mixture include stabilizers and surfactants that can augment the milling process. The ratio of the beads to that of the formulation components can be varied to suit the needs of particle size requirements. Particularly preferred ratios of beads to formulation components are from 40:1, 20:1, 15:1, 10:1 and 5:1. The bottle is crimp sealed and filled with appropriate amounts of either HFA227 or HFA134a (or a combination of both at varying ratios). The bottle is then loaded onto a RAM device and milled for a specified duration of time and at a specified power. Milling times include between about 5 minutes to about 300 minutes. Preferred milling times are from about 30 minutes to about 200 minutes and 60 minutes to about 120 minutes. Power includes about 10% to about 100% power. Preferred power range is about 40% to about 100%. Further, preferred power range is about 75% to about 100%. In most cases, the process can proceed to completion without stoppage. However, because of the ease and simplicity of the process, the process flow can be readily altered by stopping the media milling at intermittent time points for a known period of time before restarting the process again. This may be performed to cool the contents of the bottle at regular intervals. After completion, the bottle is allowed to revert to room temperature (if needed) to rapidly vent the HFA. After the process is finished the contents of the bottle (API, any excipients and/or additives, and the beads) are then added to a sieve of appropriate mesh size to separate the beads and the API. The milled API is collected and stored at 0% RH (in a nitrogen glove box) for further use.
GP was milled utilizing LabRAM in both HFA134a and HFA227. The milling was accomplished at different parameters of solids ratio, milling duration and power. YTZ beads ([…]) were utilized.
Lactose is an excipient that is FDA approved and is utilized as a carrier in dry powder inhalers. In one variation of the milling study, β-lactose (anhydrous) purchased from sigma-aldrich was subjected to HFA (HFA227) based media milling using LabRAM at a preset power of 80% and for a duration of 70 minutes. The ratio of YTZ beads ([…]) to β-lactose was maintained at 20:1. Particle size (X50) of β-lactose prior to HFA-based RAM milling was 153.6±7.4 μm. Upon subjecting the unmilled lactose to RAM-milling under the aforementioned conditions, the particle size (X50) of β-lactose was 3.47±0.01 μm.

[2] = DSC thermograms of unmilled and HFA-LabRAM milled material (solid state); assay type: physicochemical; conditions: milled versus unmilled material
Description: With respect to the examples below, the milled API was subject to DSC and the thermograms compared to that of the neat unmilled API. The data from the thermograms clearly indicate that the RAM based HFA-milled API maintains its crystalline structure (FIG. 2B). It was also confirmed that the RAM milling process minimized the undesirable amorphous material generation during milling.

[3] = HFA227, 60 mins, API:Bead ratio (w/w) 20, in µm (unit assumed)
[4] = HFA227, 86 min, API:Bead ratio (w/w) 20, in µm (unit assumed)
[5] = HFA227, 90 min, 5 min stop @45, 10 min stop, 90% power for additional 3 mins, API:Bead ratio (w/w) 20, in µm (unit assumed)
[6] = HFA227, 90 min, 5 min stop @45, API:Bead ratio (w/w) 10, in µm (unit assumed)
[7] = HFA227, 105 mins, API:Bead ratio (w/w) 20, in µm (unit assumed)
[8] = unmilled GP, in µm (unit assumed)

SMILES: C[N+]1(C)CCC(OC(=O)C(O)(c2ccccc2)C2CCCC2)C1 (centres unmarked) [GP, glycopyrrolate bromide]
X50 after LabRAM milling, all cases ([1]; HFA134a and HFA227, different solids ratio, milling duration and power, YTZ beads): less than 3 μm
average X50 after LabRAM milling ([1]; HFA134a, increased solids ratio): 1.5 μm
PSD after HFA Milling X50 [1, 3]: 3.49 ± 0.02
PSD after HFA Milling X90 [1, 3]: 15.93 ± 0.14
PSD after HFA Milling X50 [1, 4]: 1.7
PSD after HFA Milling X90 [1, 4]: 4.53 ± 0.21
PSD after HFA Milling X50 [1, 5]: 1.37 ± 0.13
PSD after HFA Milling X90 [1, 5]: 3.67 ± 0.03
PSD after HFA Milling X50 [1, 6]: 1.7 and 1.53 ± 0.06
PSD after HFA Milling X90 [1, 6]: 3.87 ± 0.12 and 3.67 ± 0.06
PSD after HFA Milling X50 [1, 7]: 2.62 ± .01
PSD after HFA Milling X90 [1, 7]: 9.83 ± 0.01
particle size (X50) prior to HFA-based RAM milling [1]: ca. 51 μm
PSD before HFA Milling X50 [1, 8]: 52.77 ± 1.55 and 52.77 ± 1.56 and 52.77 ± 1.57 and 52.77 ± 1.54
PSD before HFA Milling X90 [1, 8]: 134.7 ± 9.10 and 134.7 ± 9.11 and 134.7 ± 9.12 and 134.7 ± 9.9
solid state after HFA-LabRAM milling (DSC) [2]: no change in the polymorphic state

SMILES: O.OC[C@H]1O[C@@H](O[C@H]2[C@H](O)[C@@H](O)C(O)O[C@@H]2CO)[C@H](O)[C@@H](O)[C@H]1O (some centres unmarked) [Lactose monohydrate]
X50 after RAM-milling ([1]; HFA134a, similar conditions): 1.9 μm
X50 after RAM-milling ([1]; HFA227): less than 3 μm

Now from value to compound:

particle size (X50) at start of storage (75% RH and 25° C. study, initial value): 1.54 μm
particle size (X50) after storage (75% RH and 25° C., within a span of 24 h): 1.78 μm
increase in PSD (75% RH and 40° C., within 20 h): 0.5 μm
SMILES: C[N+]1(C)CCC(OC(=O)C(O)(c2ccccc2)C2CCCC2)C1.[Br-] (centres unmarked) [HFA-LabRAM milled GP, glycopyrrolate bromide]

time within which X50 / particle size doubles (75% RH and 40° C.): ≤ 6 h
particle size shown at 24 h (visual observation) (75% RH and 40° C., 24 h, visual observation, […]): 10 μm
increase in the size of the API (75% RH and 40° C., within 24 h): 100 fold
SMILES: C[N+]1(C)CCC(OC(=O)C(O)(c2ccccc2)C2CCCC2)C1.[Br-] (centres unmarked) [jet milled GP, glycopyrrolate bromide]

particle size (X50) of the recovered product ([1]; HFA134a, bead to lactose ratio 40:1, 60 minute duration): 2.3 μm
particle size (X50) after RAM-milling ([1]; HFA227, power 80%, 70 minutes, YTZ beads to β-lactose 20:1): 3.47±0.01 μm
particle size (X50) prior to HFA-based RAM milling [1]: 153.6±7.4 μm
solid state after HFA-LabRAM milling (DSC) [2]: crystalline
solid state after HFA-LabRAM milling (DSC) ([2]; listed as lactose): no glass transition
SMILES: OC[C@H]1O[C@@H](O[C@H]2[C@H](O)[C@@H](O)[C@H](O)O[C@@H]2CO)[C@H](O)[C@@H](O)[C@H]1O [β-lactose]

— patent US20160317391A1, “MEDIA MILLING PROCESS FOR THE MANUFACTURE OF ACTIVE PHARMACEUTICAL INGREDIENTS IN PROPELLANTS” (MERCK SHARP & DOHME CORP., priority 2013, published 2016)
